Laboratory results as given in PMC10779433, “Bidirectional Allosteric Coupling between PIP2 Binding and the Pore of the Oncochannel TRPV6” (International Journal of Molecular Sciences, 2024).
Residues, ends and D or L forms follow the SMILES beside them. *: point of attachment. Palmitoyl = CCCCCCCCCCCCCCCC(=O)*

Columns and labels:
TRPV6 WT = biological target: T1, TRPV6 WT (Homo sapiens, UniProt Q9H1D0); test: NFAT localization, TRPV6 WT; format: cell-based; conditions: HEK293 cells
T1 construct: expressed in transfected cells; host or cells: HEK293 cells, transient transfection
T1 sequence (Q9H1D0 41-765 limits assumed): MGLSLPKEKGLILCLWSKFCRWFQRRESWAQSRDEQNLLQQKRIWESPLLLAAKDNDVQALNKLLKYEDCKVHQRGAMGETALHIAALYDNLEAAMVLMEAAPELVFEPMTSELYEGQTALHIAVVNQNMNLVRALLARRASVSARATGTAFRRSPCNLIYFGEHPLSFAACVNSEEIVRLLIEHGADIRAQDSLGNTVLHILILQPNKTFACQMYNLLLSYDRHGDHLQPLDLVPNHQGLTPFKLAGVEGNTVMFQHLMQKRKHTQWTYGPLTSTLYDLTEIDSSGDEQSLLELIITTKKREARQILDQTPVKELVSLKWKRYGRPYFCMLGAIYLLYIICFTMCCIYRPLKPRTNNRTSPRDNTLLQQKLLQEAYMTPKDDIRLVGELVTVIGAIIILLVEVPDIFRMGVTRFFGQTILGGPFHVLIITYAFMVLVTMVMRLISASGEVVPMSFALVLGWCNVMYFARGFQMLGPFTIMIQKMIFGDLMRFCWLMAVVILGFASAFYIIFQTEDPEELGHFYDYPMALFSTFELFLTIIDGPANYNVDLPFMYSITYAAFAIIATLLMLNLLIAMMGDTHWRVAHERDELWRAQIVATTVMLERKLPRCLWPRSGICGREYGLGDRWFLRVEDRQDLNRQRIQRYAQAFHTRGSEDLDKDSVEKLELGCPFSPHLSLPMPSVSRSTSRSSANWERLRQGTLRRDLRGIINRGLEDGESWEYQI
Source text: (§1) N-terminally TagRFP-labeled human TRPV6 (725 aa) was kindly provided by R. Bhardwaj and M. Hediger (University of Bern, Bern, Switzerland). This variant is translated from the first ATG codon and thus deviates from the non-ATG-initiated protein which is expressed in vivo (accession number NM_018646.6) by lacking 40 amino acids of the very N-terminus. For N-terminal labeling with EYFP, TRPV6 was cloned into pEYFP-C1 (Clontech) via EcoRI and SacII restriction sites. Mutations (F468A, R470A, F472A, K484A/Q, G488R, R492A/Q, I575A, G579A, D580A/K, H582A, W583A/F, H587A, R589A, W593A, R632A/Q, R470A, W583F) were introduced using the QuickChange XL site-directed mutagenesis kit (Stratagene, San Diego, CA, USA) and Pfu DNA Polymerase (Promega, Madison, WI, USA). pTagRFP-hTRPV6 I575A was kindly provided by the lab of M. Hediger (University of Bern, Bern, Switzerland). Forward and reverse primers for site-directed mutagenesis were synthesized by Eurofins genomics GmbH (Wien, Vienna, Austria). Intactness of the constructs in terms of sequence was confirmed by sequencing (Microsynth Austria GmbH, Wien, Vienna, Austria; Eurofins genomics GmbH, Wien, Vienna, Austria). In the present experiments, Tag-RFP-labeled constructs were implemented for NFAT screens, patch clamp measurements, and Fura-2-based Ca^2+ imaging, while for R.Geco1.2 measurements, TRPV6 WT and mutants were used which carried an EYFP label at the N-terminus (pEYFP-C1 vector) to avoid spectral overlap. R.Geco1.2 was purchased from Addgene (No. 45494), and mCherry-CRY2-5ptase OCRL was established in the lab of P. De Camilli and was derived from Addgene (No. 66836), as was CIBN-CAAX (No. 79574). Plasmids encoding for mCerulean3-CRY2-5′ ptase OCRL, YFP-CIBN-CAAX, and the mCherry-tagged PH domain were provided by K. Groschner (Medical University of Graz, Graz, Austria). […] CFP-NFAT (NFATc1, equivalent to NFAT2) was kindly provided by R. Kehlenbach (Scripps Research Institute, La Jolla, CA, USA).
After incubation, cover slips were carefully rinsed with phenol red-free DMEM supplemented with the compound and dosage corresponding to the previous incubation, which was then also present during imaging. In any case, an untreated control was included as well, using phenol red-free DMEM as imaging solution. Subcellular NFAT localization of TRPV6 expressing cells was again monitored on an Axiovert 135 inverted microscope (Zeiss, Oberkochen, Germany), as described in more detail before. Excitation of CFP relied on the 425 nm LED in combination with a CHROMA 69,008× ET ECFP/EYFP/mCherry 25mm Dia Mounted filter. Images were analyzed using Matlab2018a, differentiating between three cell populations based on the ratio of CFP emission intensity originating from the nucleus and the cytosol, similar to Schober et al. (2019).

TRPV6 G488R = test: Whole-cell patch clamp, TRPV6 G488R; format: cell-based, human; conditions: HEK293 cells; for inhibition of current (in words): Figure 2D
Source text: as §1
Cultivation of human embryonic kidney (HEK) 293 cells occurred in DMEM supplemented with 10% fetal calf serum, penicillin (100 U/mL), and streptomycin (100 µg/mL) at 37 °C under humidified atmosphere containing 5% CO2. Transient transfection was performed 20–24 h prior to experiments using the TransFectin lipid reagent (Bio-Rad, Hercules, CA, USA), in accordance with the instructions of the supplier. For Ca^2+ imaging using R.Geco1.2, 2 μg of the indicator-encoding plasmid were additionally transfected, while 1 μg plasmid DNA was routinely used per construct in all other cases. […]
Electrophysiological experiments were performed at 20 °C to 24 °C in whole-cell recording configurations of the patch clamp technique. […] The liquid junction potential was determined as 12 mV; the voltages were not adjusted. […]

[1] = 5 μM cis-22a, three or four hours

Row | NFAT distribution pattern (TRPV6 WT; 0.1 μM cis-22a, 2 h, 37 °C, vs DMSO about 90% nuclear, about 10% homogeneous) | nuclear NFAT localization (% of cells) (TRPV6 WT; 5 μM cis-22a, 2 h, vs DMSO control 90% nuclear) | NFAT cytosolic localization (TRPV6 WT; [1]) | SMILES | NFAT nuclear localization (TRPV6 WT; [1]) | NFAT homogeneous vs cytosolic localization (TRPV6 WT; 10 μM cis-22a, 2 h) | NFAT cytosolic localization, dose dependence (TRPV6 WT; 0.1, 1, 5, 10 μM cis-22a, 2 h) | NFAT nuclear localization, dose dependence (TRPV6 WT; 1, 5, or 10 μM cis-22a, 2 h, 37 °C) | inhibition of current (in words) (TRPV6 G488R; 0.1 µM cis-22a, 10 mM Ca2+) | inhibition of current (in words) (TRPV6 G488R; 10 µM cis-22a (hundredfold higher dose), after 0.1 µM) | NFAT localization patterns (TRPV6 WT; 10 μM pal-PIP2 peptide, 15–20 min or 2 h) | inhibition of current (TRPV6 G488R; 10 μM pal-PIP2 peptide, relative to 1 mM La3+, n=4, Figure S1E) | apparent inhibition of current (TRPV6 G488R; 20 μM pal-PIP2 peptide, 10 mM Ca2+, relative to 1 mM La3+, Figure 2B)
1 | essentially preserved | 22% | roughly 40% | Cc1cccc(C2CCC(N3CCN(c4cccnc4)CC3)CC2)c1.O=C(O)C(F)(F)F (stereo not drawn) [cis-22a] | only a small proportion of cells maintained nuclear localization | the likelihood for homogeneous and cytosolic localization equalized | only observed at the two highest concentrations tested | continuously decreased the proportion of cells showing nuclear NFAT localization but favored a homogeneous distribution | not inhibited | essentially unaffected |  |  | 
2 |  |  |  | CCCCCCCCCCCCCCCC(=O)N[C@@H](Cc1c[nH]cn1)C(=O)N[C@@H](CCCNC(=N)N)C(=O)N[C@@H](CCC(N)=O)C(=O)N[C@@H](CCCCN)C(=O)N[C@@H](Cc1c[nH]cn1)C(=O)N[C@@H](Cc1ccccc1)C(=O)N[C@@H](CCC(=O)O)C(=O)N[C@@H](CCCCN)C(=O)N[C@@H](CCCNC(=N)N)C(=O)N[C@@H](CCCNC(=N)N)C(N)=O [pal-PIP2 peptide] (Palmitoyl-HRQKHFEKRR-NH2) |  |  |  |  |  |  | unable to change localization patterns | ~ 4% | about 24%
